Patent publication US20100151104A1, “Preservative System For Beverages Based On Combinations Of Trans-Cinnamic Acid, Lauric Arginate, And Dimethyl Dicarbonate” (priority 2008, published 2010)
Values joined by “and” are separate entries in the source; they are usually repeats but may differ in a detail not shown here. Identical values can stand only once.

What was measured:
[1] = test system: Zygosaccharomyces bisporous and Zygosaccharomyces bailii; assay: Tolerance of fungal strains to cinnamic acid over 16 weeks incubation; type: cell-based
Procedure: Over a period of incubation of 16 weeks, fungal strains are found to be tolerant to cinnamic acid at concentrations as high as 300 ppm, or even as high as 450 ppm cinnamic acid (pH 3.4). Thus, cinnamic acid, as a stand alone preservative, would need to be present at a concentrations as high as 450 ppm (e.g. between 450-500) in order to be assured that of preservation against spoilage by organisms such as Zygosaccharomyces bisporous and Zygosaccharomyces bailii for a period of at least 16 weeks. […] Beverage product case packaged in a container and which must pass through lengthy channels of distribution before reaching the consumer need be stable for a period as long as 16 weeks.

[2] = pKa and un-dissociated fraction of cinnamic acid; type: physicochemical
Text: It should be noted that cinnamic acid has a particularly high plc, value (4.42) and at least 45% of the cinnamic acid added to beverage is in the form of the un-dissociated acid.

fungal strains = conditions: prior art; incubation no greater than 72 hours; cited from earlier work
Saccharomyces cerevsiae = assay: Growth in 10% apple juice beverage with combinations of LAE & cinnamic acid; log (QA/Qa+QB/Qb) calculation; type: cell-based
Text: Trans-cinnamic acid and lauric arginate were combined in the following beverage formulation: [table] • Values reflect amount of growth (normalized) to control (0 ppm LAE & 0 ppm Cinnamic acid) for each pH tested. […] The analysis of the interaction between lauric arginate and cinnamic acid can be refined through use of a mathematical method developed by Voorspuij and Nass (Arch. Int. pharmacodyn. 59:211 1957) (generally accepted among those practiced in the art.) Herein, the interactions between two active substances can be explored. First the quantity (Qa=Molar Cone) of compound A required for an end point (concentration required to stabilize product for 16 weeks) is established. Similarly, the quantity (Qb =Molar cone) of substance B required to establish the same endpoint is established. Thereafter, mixtures of A & B, in quantities QA & Qs are established that also define endpoints. […] If the sum of the ratios for a mixture of A & Bare=1, then the interaction is considered additive. […] Calculation of log (QA/Qa+QB/Qb) for LAE+trans Cinnamic Acid vs Saccharomyces […]

yeast and mold = conditions: recommended by inventor & manufacturer of LAE; cited from earlier work
[3] = stand alone, end point = concentration required to stabilize product for 16 weeks

In the case of O=C(O)/C=C/c1ccccc1 [Cinnamic Acid, trans-cinnamic acid], the “concentration of cinnamic acid to which fungal strains are tolerant” value ([1]; incubation of 16 weeks, pH 3.4) is reported as 300 ppm and 450 ppm, the “stand alone concentration needed for preservation against spoilage for at least 16 weeks” value ([1]; stand alone preservative, 16 weeks) is reported as 450-500 ppm and the “cinnamic acid in the form of the un-dissociated acid” value ([2]; beverage pH 4.5) is reported as “at least 45%”. The “cinnamic acid in the form of the un-dissociated acid” value ([2]; pH 5.5) was at most 7.6%, the MIC (fungal strains) was 125-180 ppm and the “QA/Qa + QB/Qb” value (Saccharomyces cerevsiae; QLAE 0, QCA 300) was 1.00. The “QLAE/QLAE*” value (Saccharomyces cerevsiae; QLAE 0, QCA 300) was 0.00, the “QNaB/QNAB*” value (Saccharomyces cerevsiae; QLAE 0, QCA 300) was 1.00 and the “log (QA/Qa + QB/Qb)” value (Saccharomyces cerevsiae; QLAE 0, QCA 300) was 0.0000. For the same molecule, the “amount of growth (normalized) to control” value (Saccharomyces cerevsiae; pH 3.0, LAE 0 ppm, Cinnamic Acid 10 ppm) was 80%, the “amount of growth (normalized) to control” value (Saccharomyces cerevsiae; pH 3.0, LAE 0 ppm, Cinnamic Acid 20 ppm) was 74% and the “amount of growth (normalized) to control” value (Saccharomyces cerevsiae; pH 3.0, LAE 0 ppm, Cinnamic Acid 50 ppm) was 50%. For the same molecule, the “amount of growth (normalized) to control” value (Saccharomyces cerevsiae; pH 3.0, LAE 0 ppm, Cinnamic Acid 75 ppm) was 26%, the “amount of growth (normalized) to control” value (Saccharomyces cerevsiae; pH 3.0, LAE 0 ppm, Cinnamic Acid 100 ppm) was 11% and the “amount of growth (normalized) to control” value (Saccharomyces cerevsiae; pH 3.5, LAE 0 ppm, Cinnamic Acid 10 ppm) was 96%. For the same molecule, the “amount of growth (normalized) to control” value (Saccharomyces cerevsiae; pH 3.5, LAE 0 ppm, Cinnamic Acid 20 ppm) was 85%, the “amount of growth (normalized) to control” value (Saccharomyces cerevsiae; pH 3.5, LAE 0 ppm, Cinnamic Acid 50 ppm) was 61% and the “amount of growth (normalized) to control” value (Saccharomyces cerevsiae; pH 3.5, LAE 0 ppm, Cinnamic Acid 75 ppm) was 44%. The “amount of growth (normalized) to control” value (Saccharomyces cerevsiae; pH 3.5, LAE 0 ppm, Cinnamic Acid 100 ppm) was 22%, the “amount of growth (normalized) to control” value (Saccharomyces cerevsiae; pH 4.0, LAE 0 ppm, Cinnamic Acid 10 ppm) was 96% and the “amount of growth (normalized) to control” value (Saccharomyces cerevsiae; pH 4.0, LAE 0 ppm, Cinnamic Acid 20 ppm) was 87%. For the same molecule, the “amount of growth (normalized) to control” value (Saccharomyces cerevsiae; pH 4.0, LAE 0 ppm, Cinnamic Acid 50 ppm) was 72%, the “amount of growth (normalized) to control” value (Saccharomyces cerevsiae; pH 4.0, LAE 0 ppm, Cinnamic Acid 75 ppm) was 54% and the “amount of growth (normalized) to control” value (Saccharomyces cerevsiae; pH 4.0, LAE 0 ppm, Cinnamic Acid 100 ppm) was 39%. For the same molecule, the “QCA* (quantity of cinnamic acid alone required for the end point)” value (Saccharomyces cerevsiae; [3]) was “QCA* 300”.
For CCCCCCCCCCCC(=O)N[C@@H](CCCNC(=N)N)C(=O)OCC.Cl [LAE, ethyl-N-lauroyl-L-argniate hydrochloride], the “recommended stand alone concentration to stabilize beverages against spoilage” value (yeast and mold) is given as 128 ppm, the “QA/Qa + QB/Qb” value (Saccharomyces cerevsiae; QLAE 32, QCA 0) is given as 1.00 and the “QLAE/QLAE*” value (Saccharomyces cerevsiae; QLAE 32, QCA 0) is given as 1.00. The “QNaB/QNAB*” value (Saccharomyces cerevsiae; QLAE 32, QCA 0) was 0.00, the “log (QA/Qa + QB/Qb)” value (Saccharomyces cerevsiae; QLAE 32, QCA 0) was 0.0000 and the “amount of growth (normalized) to control” value (Saccharomyces cerevsiae; pH 3.0, LAE 2.5 ppm, Cinnamic Acid 0 ppm) was 97%. For the same molecule, the “amount of growth (normalized) to control” value (Saccharomyces cerevsiae; pH 3.0, LAE 5 ppm, Cinnamic Acid 0 ppm) was 97%, the “amount of growth (normalized) to control” value (Saccharomyces cerevsiae; pH 3.0, LAE 7.5 ppm, Cinnamic Acid 0 ppm) was 86% and the “amount of growth (normalized) to control” value (Saccharomyces cerevsiae; pH 3.0, LAE 10 ppm, Cinnamic Acid 0 ppm) was 94%. For the same molecule, the “amount of growth (normalized) to control” value (Saccharomyces cerevsiae; pH 3.0, LAE 15 ppm, Cinnamic Acid 0 ppm) was 42%, the “amount of growth (normalized) to control” value (Saccharomyces cerevsiae; pH 3.5, LAE 2.5 ppm, Cinnamic Acid 0 ppm) was 103% and the “amount of growth (normalized) to control” value (Saccharomyces cerevsiae; pH 3.5, LAE 5 ppm, Cinnamic Acid 0 ppm) was 104%. The “amount of growth (normalized) to control” value (Saccharomyces cerevsiae; pH 3.5, LAE 7.5 ppm, Cinnamic Acid 0 ppm) was 93%, the “amount of growth (normalized) to control” value (Saccharomyces cerevsiae; pH 3.5, LAE 10 ppm, Cinnamic Acid 0 ppm) was 105% and the “amount of growth (normalized) to control” value (Saccharomyces cerevsiae; pH 3.5, LAE 15 ppm, Cinnamic Acid 0 ppm) was 57%. For the same molecule, the “amount of growth (normalized) to control” value (Saccharomyces cerevsiae; pH 4.0, LAE 2.5 ppm, Cinnamic Acid 0 ppm) was 101%, the “amount of growth (normalized) to control” value (Saccharomyces cerevsiae; pH 4.0, LAE 5 ppm, Cinnamic Acid 0 ppm) was 96% and the “amount of growth (normalized) to control” value (Saccharomyces cerevsiae; pH 4.0, LAE 7.5 ppm, Cinnamic Acid 0 ppm) was 91%. The “amount of growth (normalized) to control” value (Saccharomyces cerevsiae; pH 4.0, LAE 10 ppm, Cinnamic Acid 0 ppm) was 90%, the “amount of growth (normalized) to control” value (Saccharomyces cerevsiae; pH 4.0, LAE 15 ppm, Cinnamic Acid 0 ppm) was 79% and the “QLAE* (quantity of LAE alone required for the end point)” value (Saccharomyces cerevsiae; [3]) was “QLAE* 32”.
